Data from patent US11951094B2, “TLR2 modulator compounds, pharmaceutical compositions and uses thereof” (Axial Therapeutics, Inc., priority 2020, dated 2024).
Where a name gives a salt, the structure may show the parent alone.

biological target: TLR2 (Homo sapiens, UniProt O60603); assay: TLR2 agonist screening assay, HEK-Blue TLR2 reporter cell line (NF-kB-driven SEAP, absorbance at 600 nm); assay type: cell-based; parameters: host or cells: HEK-293 (HEK-Blue TLR2 reporter cell line); conditions: HEK-Blue TLR2 reporter cells, agonist mode; average of all runs (Table 3)
Outline: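 EC50 values come from 600 nm absorbance of SEAP-converted substrate after overnight agonist exposure. The reporter line was HEK-293 engineered with TLR2 and an NF-kB-SEAP construct, seeded at about 40,000 cells per well 16-24 h beforehand. Compounds were added at 1% final DMSO.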

TLR2, sequence (O60603 21-784): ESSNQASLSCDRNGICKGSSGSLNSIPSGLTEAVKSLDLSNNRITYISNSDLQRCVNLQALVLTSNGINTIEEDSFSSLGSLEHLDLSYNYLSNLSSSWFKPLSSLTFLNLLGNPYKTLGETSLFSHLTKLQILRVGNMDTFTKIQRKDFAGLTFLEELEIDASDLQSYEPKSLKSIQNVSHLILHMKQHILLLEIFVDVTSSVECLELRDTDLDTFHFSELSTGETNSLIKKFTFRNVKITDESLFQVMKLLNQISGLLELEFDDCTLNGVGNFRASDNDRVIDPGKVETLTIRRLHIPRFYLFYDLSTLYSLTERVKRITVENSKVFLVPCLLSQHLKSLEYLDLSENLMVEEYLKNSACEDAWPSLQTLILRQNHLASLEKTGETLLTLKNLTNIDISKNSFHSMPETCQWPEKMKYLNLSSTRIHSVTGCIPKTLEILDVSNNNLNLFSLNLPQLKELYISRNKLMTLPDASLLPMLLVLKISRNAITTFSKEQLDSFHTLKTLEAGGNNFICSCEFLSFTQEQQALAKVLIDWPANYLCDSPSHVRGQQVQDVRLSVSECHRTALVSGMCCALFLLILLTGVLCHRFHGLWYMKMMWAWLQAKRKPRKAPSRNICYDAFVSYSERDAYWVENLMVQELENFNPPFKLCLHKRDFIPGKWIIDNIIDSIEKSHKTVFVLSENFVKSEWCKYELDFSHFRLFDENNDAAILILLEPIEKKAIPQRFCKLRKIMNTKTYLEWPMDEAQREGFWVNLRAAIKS

| SMILES | EC50 |
| --- | --- |
| CCCCCCNC(=O)CC[C@H](NC(=O)c1ccc(C(=O)N2C[C@@H](C(=O)N[C@H]3C[C@@H]3c3ccccc3)[C@H](C(=O)N[C@H]3C[C@@H]3c3ccccc3)C2)cc1)C(=O)NCCCCCC [Compound 013] | > 1000 nM |
| CCCCCCCCCCCCCCNC(=O)C1CN(C(=O)c2ccc(C(=O)N3C[C@@H](C(=O)N[C@H]4C[C@@H]4c4ccccc4)[C@H](C(=O)N[C@H]4C[C@@H]4c4ccccc4)C3)cc2)CCN1C (stereo partly drawn) [Compound 023, (3S,4S)-1-(4-(4-methyl-3-(tetradecylcarbamoyl)piperazine-1-carbonyl)benzoyl)-N3,N4-bis((1S,2R)-2-phenylcyclopropyl)pyrrolidine-3,4-dicarboxamide formate] | 0.1 to 50 nM |
| CCCCCCCCCCCCCCNC(=O)C1CN(C(=O)c2ccc(C(=O)N3C[C@@H](C(=O)N[C@H]4C[C@@H]4c4ccccc4)[C@H](C(=O)N[C@H]4C[C@@H]4c4ccccc4)C3)cc2)CCO1 (stereo partly shown) [Compound 006] | 351 to 1000 nM |
| CCCCCCNC(=O)[C@@H]1CN(C(=O)c2ccc(C(=O)N3C[C@@H](C(=O)N[C@H]4C[C@@H]4c4ccccc4)[C@H](C(=O)N[C@H]4C[C@@H]4c4ccccc4)C3)cc2)C[C@H]1C(=O)NCCCCCC [Compound 035] | 0.1 to 50 nM |
| CCCCCCCOC1CN(C(=O)c2ccc(C(=O)N3C[C@@H](C(=O)N[C@H]4C[C@@H]4c4ccccc4)[C@H](C(=O)N[C@H]4C[C@@H]4c4ccccc4)C3)cc2)C[C@H]1OCCCCCCC (stereo partly shown) [Compound 016] | > 1000 nM |
| CCCCCCCC(=O)N1CCN(C(=O)c2ccc(C(=O)N3C[C@@H](C(=O)N[C@H]4C[C@@H]4c4ccccc4)[C@H](C(=O)N[C@H]4C[C@@H]4c4ccccc4)C3)cc2)CC1C(=O)NCCCCC (stereo partly drawn) [Compound 052, (3S,4S)-1-(4-(4-octanoyl-3-(pentylcarbamoyl)piperazine-1-carbonyl)benzoyl)-N3,N4-bis((1S,2R)-2-phenylcyclopropyl)pyrrolidine-3,4-dicarboxamide] | 0.1 to 50 nM |
| CCCCCCCCCCCCCCNC(=O)[C@@H]1CN(C(=O)c2ccc(C(=O)N3C[C@@H](C(=O)N[C@H]4C[C@@H]4c4ccccc4)[C@H](C(=O)N[C@H]4C[C@@H]4c4ccccc4)C3)cc2)C[C@@H]1OC (single isomer, unassigned) [Compound 061, (3S,4S)-1-(4-((3R*,4R*)-3-methoxy-4-(tetradecylcarbamoyl)pyrrolidine-1-carbonyl)benzoyl)-N3,N4-bis((1S,2R)-2-phenylcyclopropyl)pyrrolidine-3,4-dicarboxamide] | 0.1 to 50 nM |

same assay, conditions: HEK-Blue TLR2 reporter cells, agonist mode; average of all runs (Table 4)

| SMILES | EC50 |
| --- | --- |
| CCCCCCCC[C@@H]1CN(C(=O)c2ccc(C(=O)N3C[C@@H](C(=O)N[C@H]4C[C@@H]4c4ccccc4)[C@H](C(=O)N[C@H]4C[C@@H]4c4ccccc4)C3)cc2)C[C@H]1C(=O)NCCCCCC (racemic) [Compound 085, (3S,4S)-1-(4-((3S*,4S*)-3-(hexylcarbamoyl)-4-octylpyrrolidine-1-carbonyl)benzoyl)-N3,N4-bis((1S,2R)-2-phenylcyclopropyl)pyrrolidine-3,4-dicarboxamide] | 0.1 to 50 nM |
| CCCCCCCO[C@H]1CN(C(=O)c2ccc(C(=O)N3C[C@@H](C(=O)N[C@H]4C[C@@H]4c4ccccc4)[C@H](C(=O)N[C@H]4C[C@@H]4c4ccccc4)C3)cc2)C[C@@H]1C(=O)NCCCCCC (relative stereo) [Compound 113, (3S,4S)-1-(4-((3R*,4S*)-3-(heptyloxy)-4-(hexylcarbamoyl)pyrrolidine-1-carbonyl)benzoyl)-N3,N4-bis((1S,2R)-2-phenylcyclopropyl)pyrrolidine-3,4-dicarboxamide] | 51 to 350 nM |
| CCCCCCCCCCCCCCNC(=O)[C@@H]1CN(C(=O)c2ccc(C(=O)N3C[C@@H](C(=O)N[C@H]4C[C@@H]4c4ccccc4)[C@H](C(=O)N[C@H]4C[C@@H]4c4ccccc4)C3)cc2)C[C@H]1O (single isomer, unassigned) [Compound 105, (3S,4S)-1-(4-((3R*,4S*)-3-hydroxy-4-(tetradecylcarbamoyl)pyrrolidine-1-carbonyl)benzoyl)-N3,N4-bis((1S,2R)-2-phenylcyclopropyl)pyrrolidine-3,4-dicarboxamide] | 51 to 350 nM |

Results, then the molecule that gave them:

| EC50 | SMILES |
| --- | --- |
| > 1000 nM | CCCCCCNC(=O)[C@H]1CN(C(c2ccc(C(=O)N3C[C@@H](C(=O)N[C@H]4C[C@@H]4c4ccccc4)[C@H](C(=O)N[C@H]4C[C@@H]4c4ccccc4)C3)cc2)C(F)(F)F)CCN1C(=O)CCCCCC (stereo partly drawn) [Compound 158, (3S,4S)—N3,N4-bis((1S,2R)-2-phenylcyclopropyl)-1-(4-(2,2,2-trifluoro-1-((R)-4-heptanoyl-3-(hexylcarbamoyl)piperazin-1-yl)ethyl)benzoyl)pyrrolidine-3,4-dicarboxamide] |
| 0.1 to 50 nM | CCCCCCCCCCCCNC(=O)N[C@H]1CN(C(c2ccc(C(=O)N3C[C@@H](C(=O)N[C@H]4C[C@@H]4c4ccccc4)[C@H](C(=O)N[C@H]4C[C@@H]4c4ccccc4)C3)cc2)C(F)(F)F)C[C@@H]1OC (single isomer, unassigned) [Compound 233, (3S,4S)-1-(4-((S*)-1-((3S,4S)-3-(3-dodecylureido)-4-methoxypyrrolidin-1-yl)-2,2,2-trifluoroethyl)benzoyl)-N3,N4-bis((1S,2R)-2-phenylcyclopropyl)pyrrolidine-3,4-dicarboxamide] |
| 0.1 to 50 nM | CCCCCCNC(=O)[C@H](CNC(=O)c1ccc(C(=O)N2C[C@@H](C(=O)N[C@H]3C[C@@H]3c3ccccc3)[C@H](C(=O)N[C@H]3C[C@@H]3c3ccccc3)C2)cc1)NC(=O)CCc1ccc(F)cc1 [Compound 139, (3S,4S)-1-(4-(((S)-2-(3-(4-fluorophenyl)propanamido)-3-(hexylamino)-3-oxopropyl)carbamoyl)benzoyl)-N3,N4-bis ((1S,2R)-2-phenylcyclopropyl) pyrrolidine-3,4-dicarboxamide] |
| > 1000 nM | CCCCCCCCCC(=O)N[C@@H](CNC(=O)Nc1ccc(C(=O)N2C[C@@H](C(=O)N[C@H]3C[C@@H]3c3ccccc3)[C@H](C(=O)N[C@H]3C[C@@H]3c3ccccc3)C2)cc1)C(=O)NCCCCCC [Compound 235, (3S,4S)-1-(4-(3-((S)-2-decanamido-3-(hexylamino)-3-oxopropyl)ureido)benzoyl)-N3,N4-bis((1S,2R)-2-phenylcyclopropyl)pyrrolidine-3,4-dicarboxamide] |
| 351 to 1000 nM | CCCCCCCC(=O)N1CCCN(C(=O)c2cccc(C(=O)N3C[C@@H](C(=O)N[C@H]4C[C@@H]4c4ccccc4)[C@H](C(=O)N[C@H]4C[C@@H]4c4ccccc4)C3)c2)C[C@H]1C(=O)NCCCCCC (single isomer, unassigned) [Compound 190] |
| > 1000 nM | CCCCCCCO[C@@H]1CN(C(=O)c2ccc(C(=O)N3C[C@@H](C(=O)N[C@H]4C[C@@H]4c4ccccc4)[C@H](C(=O)N[C@H]4C[C@@H]4c4ccccc4)C3)cc2)C[C@H]1NC(=O)CCCCCC [Compound 155, (3S,4S)-1-(4-((3R,4R)-3-heptanamido-4-(heptyloxy)pyrrolidine-1-carbonyl)benzoyl)-N3,N4-bis((1S,2R)-2-phenylcyclopropyl)pyrrolidine-3,4-dicarboxamide] |
| > 1000 nM | CCCCCCCCCCCCCCNC(=O)[C@@H]1CN(C(=O)c2ccc(C(=O)N3C[C@@H](C(=O)N[C@H]4C[C@@H]4c4ccccc4)[C@H](C(=O)N[C@H]4C[C@@H]4c4ccccc4)C3)cc2)CCO1 [Compound 151, (3S,4S)—N3,N4-bis((1S,2R)-2-phenylcyclopropyl)-1-(4-((S)-2-(tetradecylcarbamoyl)morpholine-4-carbonyl)benzoyl)pyrrolidine-3,4-dicarboxamide] |
| 51 to 350 nM | CCCCCCCCCCCCCCNC(=O)[C@H]1CN(C(=O)c2ccc(C(=O)N3C[C@@H](C(=O)N[C@H]4C[C@@H]4c4ccccc4)[C@H](C(=O)N[C@H]4C[C@@H]4c4ccccc4)C3)cc2)CCO1 [Compound 150, (3S,4S)—N3,N4-bis ((1S,2R)-2-phenylcyclopropyl)-1-(4-((R)-2-(tetradecylcarbamoyl)morpholine-4-carbonyl)benzoyl) pyrrolidine-3,4-dicarboxamide] |
| > 1000 nM | CCCCCCCCCC(=O)NC(Cn1cnc2ccc(C(=O)N3C[C@@H](C(=O)N[C@H]4C[C@@H]4c4ccccc4)[C@H](C(=O)N[C@H]4C[C@@H]4c4ccccc4)C3)cc2c1=O)C(=O)NCCCCCC (stereo partly drawn) [Compound 248, (3S,4S)-1-(3-(2-decanamido-3-(hexylamino)-3-oxopropyl)-4-oxo-3,4-dihydroquinazoline-6-carbonyl)-N3,N4-bis((1S,2R)-2-phenylcyclopropyl)pyrrolidine-3,4-dicarboxamide] |
| 0.1 to 50 nM | CCCCCCCCCC(=O)N[C@@H](COC(=O)Nc1ccc(C(=O)N2C[C@@H](C(=O)N[C@H]3C[C@@H]3c3ccccc3)[C@H](C(=O)N[C@H]3C[C@@H]3c3ccccc3)C2)cc1)C(=O)NCCCCCC [Compound 239, (S)-2-decanamido-3-(hexylamino)-3-oxopropyl (4-((3S,4S)-3,4-bis(((1S,2R)-2-phenylcyclopropyl)carbamoyl)pyrrolidine-1-carbonyl)phenyl)carbamate] |
| 351 to 1000 nM | CCCCCCCO[C@@H]1CN(C(=O)c2ccc(C(=O)N3C[C@@H](C(=O)N[C@H]4C[C@@H]4c4ccccc4)[C@H](C(=O)N[C@H]4C[C@@H]4c4ccccc4)C3)cc2)C[C@@H]1C(=O)NCCCCCC (relative stereo) [Compound 116, (3S,4S)-1-(4-((3S*,4S*)-3-(heptyloxy)-4-(hexylcarbamoyl)pyrrolidine-1-carbonyl)benzoyl)-N3,N4-bis((1S,2R)-2-phenylcyclopropyl)pyrrolidine-3,4-dicarboxamide] |
| 351 to 1000 nM | CCCCCCCCCCCCCCC(=O)N[C@@H]1CN(C(=O)c2ccc(C(=O)N3C[C@@H](C(=O)N[C@H]4C[C@@H]4c4ccccc4)[C@H](C(=O)N[C@H]4C[C@@H]4c4ccccc4)C3)cc2)C[C@H]1O [Compound 157, (3S,4S)-1-(4-((3R,4R)-3-hydroxy-4-pentadecanamidopyrrolidine-1-carbonyl)benzoyl)-N3,N4-bis ((1S,2R)-2-phenylcyclopropyl) pyrrolidine-3,4-dicarboxamide] |
